Numbers after ± are expanded uncertainties.
Tests used:
[1] = mn = molality of the nth substance listed, in mol/kg; conditions: 100 kPa, Liquid; for viscosity: Capillary tube (Ostwald / Ubbelohde) method; for speed of sound: Frequency=3 MHz, Sing-around technique in a fixed-path interferometer; for mass density: Vibrating tube method
[2] = 100 kPa, Liquid, Capillary tube (Ostwald / Ubbelohde) method

Row | Structure (SMILES) | viscosity ([1]; 293.15 K, m1 = 0.1) | speed of sound ([1]; 293.15 K, m1 = 0.1) | mass density ([1]; 293.15 K, m1 = 0.1) | viscosity ([1]; 298.15 K, m1 = 0.1) | speed of sound ([1]; 298.15 K, m1 = 0.1) | mass density ([1]; 298.15 K, m1 = 0.1) | viscosity ([1]; 303.15 K, m1 = 0.1) | speed of sound ([1]; 303.15 K, m1 = 0.1) | viscosity ([1]; 308.15 K, m1 = 0.1) | speed of sound ([1]; 308.15 K, m1 = 0.1) | viscosity ([1]; 313.15 K, m1 = 0.1) | speed of sound ([1]; 313.15 K, m1 = 0.1) | mass density ([1]; 313.15 K, m1 = 0.1) | viscosity ([1]; 318.15 K, m1 = 0.1) | speed of sound ([1]; 318.15 K, m1 = 0.1) | mass density ([1]; 303.15 K, m1 = 0.1) | mass density ([1]; 308.15 K, m1 = 0.1) | mass density ([1]; 318.15 K, m1 = 0.1) | further results
1 | NCC(=O)O [2-aminoacetic acid] + O | 1.016 ± 0.022 mPa·s | 1488.2 ± 1.7 m/s | 1001.51 ± 0.27 kg/m3 | 0.9031 ± 0.022 mPa·s | 1502.2 ± 1.7 m/s | 1000.32 ± 0.27 kg/m3 | 0.808 ± 0.021 mPa·s | 1514.4 ± 1.7 m/s | 0.7271 ± 0.021 mPa·s | 1525 ± 1.7 m/s | 0.6645 ± 0.021 mPa·s | 1533.9 ± 1.7 m/s | 995.401 ± 0.28 kg/m3 | 0.5988 ± 0.021 mPa·s | 1541.3 ± 1.6 m/s |  |  |  | 
2 | O [water] |  |  |  |  |  |  |  |  |  |  |  |  |  |  |  |  |  |  | viscosity ([2]; 293.15 K): 1.002 ± 0.021 mPa·s; viscosity ([2]; 298.15 K): 0.8903 ± 0.021 mPa·s; viscosity ([2]; 303.15 K): 0.7973 ± 0.021 mPa·s; viscosity ([2]; 308.15 K): 0.719 ± 0.021 mPa·s; viscosity ([2]; 313.15 K): 0.6526 ± 0.021 mPa·s; viscosity ([2]; 318.15 K): 0.596 ± 0.021 mPa·s
3 | O [water] + C[C@H](CCC(=O)[O-])[C@H]1CC[C@H]2[C@@H]3CC[C@@H]4C[C@H](O)CC[C@]4(C)[C@H]3C[C@H](O)[C@]12C.[Na+] |  |  |  |  |  |  |  |  |  |  |  |  |  |  |  |  |  |  | viscosity ([1]; 293.15 K, m2 = 0): 1.002 ± 0.021 mPa·s; viscosity ([1]; 298.15 K, m2 = 0): 0.8903 ± 0.021 mPa·s; viscosity ([1]; 303.15 K, m2 = 0): 0.7973 ± 0.021 mPa·s; viscosity ([1]; 308.15 K, m2 = 0): 0.719 ± 0.021 mPa·s; viscosity ([1]; 313.15 K, m2 = 0): 0.6526 ± 0.021 mPa·s; speed of sound ([1]; 313.15 K, m2 = 0): 1529.2 ± 1.3 m/s; viscosity ([1]; 318.15 K, m2 = 0): 0.596 ± 0.021 mPa·s; speed of sound ([1]; 318.15 K, m2 = 0): 1536.5 ± 1.3 m/s; mass density ([1]; 318.15 K, m2 = 0): 990.256 ± 0.15 kg/m3
4 | O [water] + C[C@H](CCC(=O)[O-])[C@H]1CC[C@H]2[C@@H]3[C@H](O)C[C@@H]4C[C@H](O)CC[C@]4(C)[C@H]3C[C@H](O)[C@]12C.[Na+] |  |  |  |  |  |  |  |  |  |  |  |  |  |  |  |  |  |  | viscosity ([1]; 293.15 K, m2 = 0): 1.002 ± 0.021 mPa·s; viscosity ([1]; 298.15 K, m2 = 0): 0.8903 ± 0.021 mPa·s; viscosity ([1]; 303.15 K, m2 = 0): 0.7973 ± 0.021 mPa·s; viscosity ([1]; 308.15 K, m2 = 0): 0.719 ± 0.021 mPa·s; viscosity ([1]; 313.15 K, m2 = 0): 0.6526 ± 0.021 mPa·s; speed of sound ([1]; 313.15 K, m2 = 0): 1529.2 ± 1.3 m/s; viscosity ([1]; 318.15 K, m2 = 0): 0.596 ± 0.021 mPa·s; speed of sound ([1]; 318.15 K, m2 = 0): 1536.5 ± 1.3 m/s; mass density ([1]; 318.15 K, m2 = 0): 990.256 ± 0.14 kg/m3

Second part, led by results:

Row | viscosity ([1]; 293.15 K, m1 = 0.1) | speed of sound ([1]; 293.15 K, m1 = 0.1) | mass density ([1]; 293.15 K, m1 = 0.1) | viscosity ([1]; 298.15 K, m1 = 0.1) | speed of sound ([1]; 298.15 K, m1 = 0.1) | mass density ([1]; 298.15 K, m1 = 0.1) | viscosity ([1]; 303.15 K, m1 = 0.1) | speed of sound ([1]; 303.15 K, m1 = 0.1) | viscosity ([1]; 308.15 K, m1 = 0.1) | speed of sound ([1]; 308.15 K, m1 = 0.1) | viscosity ([1]; 313.15 K, m1 = 0.1) | speed of sound ([1]; 313.15 K, m1 = 0.1) | mass density ([1]; 313.15 K, m1 = 0.1) | viscosity ([1]; 318.15 K, m1 = 0.1) | speed of sound ([1]; 318.15 K, m1 = 0.1) | mass density ([1]; 303.15 K, m1 = 0.1) | mass density ([1]; 308.15 K, m1 = 0.1) | mass density ([1]; 318.15 K, m1 = 0.1) | Structure (SMILES) | further results
5 | 1.052 ± 0.022 mPa·s | 1491.8 ± 1.7 m/s | 1003.99 ± 0.27 kg/m3 | 0.928 ± 0.022 mPa·s | 1505.3 ± 1.7 m/s | 1002.8 ± 0.28 kg/m3 | 0.8289 ± 0.021 mPa·s | 1517.4 ± 1.7 m/s | 0.7447 ± 0.021 mPa·s | 1527.6 ± 1.7 m/s | 0.6783 ± 0.021 mPa·s | 1536.3 ± 1.7 m/s | 997.795 ± 0.28 kg/m3 | 0.5915 ± 0.021 mPa·s | 1543.8 ± 1.6 m/s | 1001.33 ± 0.28 kg/m3 | 999.656 ± 0.28 kg/m3 | 995.765 ± 0.27 kg/m3 | N[C@@H](Cc1c[nH]cn1)C(=O)O [L-histidine] + O | 
6 | 1.06 ± 0.022 mPa·s | 1494.9 ± 1.7 m/s | 1000.79 ± 0.27 kg/m3 | 0.9398 ± 0.022 mPa·s | 1508.3 ± 1.7 m/s | 999.575 ± 0.27 kg/m3 | 0.8362 ± 0.022 mPa·s | 1520.2 ± 1.7 m/s | 0.7509 ± 0.021 mPa·s | 1530.3 ± 1.7 m/s | 0.6801 ± 0.021 mPa·s | 1538.8 ± 1.7 m/s | 994.559 ± 0.29 kg/m3 | 0.6014 ± 0.021 mPa·s | 1545.9 ± 1.6 m/s | 998.115 ± 0.28 kg/m3 | 996.485 ± 0.28 kg/m3 | 992.305 ± 0.28 kg/m3 | CC(C)C[C@H](N)C(=O)O [L-leucine] + O | 
7 | 1.034 ± 0.023 mPa·s | 1493 ± 1.9 m/s | 1002.78 ± 0.43 kg/m3 | 0.92 ± 0.022 mPa·s | 1506.7 ± 2 m/s | 1001.58 ± 0.43 kg/m3 | 0.8289 ± 0.022 mPa·s | 1518.5 ± 1.9 m/s | 0.7461 ± 0.021 mPa·s | 1528.7 ± 1.9 m/s | 0.6799 ± 0.021 mPa·s | 1537 ± 1.9 m/s | 996.591 ± 0.43 kg/m3 | 0.6105 ± 0.021 mPa·s | 1544.2 ± 1.9 m/s | 1000.16 ± 0.44 kg/m3 | 998.461 ± 0.43 kg/m3 | 994.572 ± 0.43 kg/m3 | CSCC[C@H](N)C(=O)O [L-methionine] + O | 
